Measurements: patent US20170143674A1, “Use of Glutaryl Histamine for the Treatment of Respiratory Tract Diseases” (LTD "VALENTA-INTELLEKT", priority 2011, published 2017)
Where two headings read alike, the source gives them in different places. Marks after values point to notes of the source that are not given here.

Assays:
[1] = system: acute rhinosinusitis induced by intranasal administration of formalin; type: in vivo, rat
Description: Activity of glutaryl histamine was studied in an experimental model of acute rhinosinusitis (ARS).
Administration of 20 μl of 7.5% formalin to the rat nasal passages leads to the development of a clinical picture similar to the symptoms of acute rhinosinusitis in a human.
The tested medicament and reference medicaments were administered for 7 days after administration of 7.5% formalin. Normal saline solution was used as placebo. The animals were subjected to euthanasia on day 8 after induction of experimental acute rhinosinusitis by method of air embolism. During necropsy, nasal passages of all animals were sampled. The obtained material was placed into 10% neutral-buffered formalin for further histological analysis.
The mucous and submucous membranes of both nasal passages (respiratory and olfactory regions) of the experimental animals were subjected to a morphological analysis of the specific activity of glutaryl histamine.
After the clinical phase of the experiment, the material derived from the animals was subjected to the standard treatment to prepare histological paraffin sections with a thickness of 3 to 5 μm. The sections were stained with hematoxylin and eosin for a microscopic study. Comparison and histological analysis of changes were performed versus the group of intact rats.
The main pathological processes inherent in experimental acute rhinosinusitis, such as vascular congestion in mucous membrane, hyperplasia and necrosis of the epithelium, the number of caliciform cells within 1 mm of the mucous membrane in the nasal septum, were evaluated by a semi-quantitative method to evaluate the degree of pathophysiological changes in histological, histochemical and morphological studies.
The microscopic analysis of exudative disorder developed in rats with acute rhinitis was aimed at measuring the number of caliciform cells comprising acidic mucus (Table 3).

[2] = system: LPS-induced tonsillitis; experiment: LPS-induced tonsillitis model (E. coli LPS into cervical lymph node); type: in vivo; conditions: Diclofenac (11 mg/kg)
Description: This example is aimed at evaluating the activity of glutaryl histamine on experimental model of tonsillitis. LPS-induced tonsillitis is one of the most adequate models for the study of the pathogenesis, pathomorphological changes and action of pharmacological medicaments on the course of this disease.
Tonsillitis was induced under anesthesia by administration of a solution of E. coli lipopolysaccharide (LPS) (Sigma) in normal physiological solution in a dose of 20 μg/kg, by 10 μl to the right upper lymph node (Inn. Cervicales superficiales). After administration, the lymph nodes were put under superficial neck muscles and then the skin was stitched. The wound was treated with streptocide. The animal was placed into a post-operation cage.
The tested medicament was administered once daily in a given dose strictly at the stated time for three days before the induction of tonsillitis and 10 days after. Normal saline solution was used as placebo.
Immediately after euthanasia, the animals were subjected to necropsy, the affected and intact lymph nodes were removed and weighed.
The lymph nodes derived from the half of animals from each group were being frozen after removal in a refrigerating chamber at −25° C. for 72 hours. Then the lymph nodes were lyophilized.
In a half of animals from each group (7), the affected lymph nodes were subjected to histological analysis. After euthanasia, intact and affected lymph nodes were removed from each animal. […] Sections with a thickness of 4 to 6 μm were prepared from the paraffin blocks, stained with hematoxylin and eosin to reveal typical pathological processes and study required parameters using light-optical microscope Leica DM LS (magnification 200× and 400×).
Weights of intact and affected lymph nodes were compared and the nodes also were lyophilized to evaluate an effect of the medicaments on the swelling degree and adequacy of the model of tonsillitis.
The protein-synthetic function of the liver and a systemic effect of the medicaments on organism were evaluated in total protein (TP) analysis.

[3] = system: Staphylococcus aureus (mouse-adapted strain 10); experiment: animal or person; type: in vivo, mice
Description: The tested medicament was glutaryl histamine in doses of 15, 30 and 45 mg/kg. Solutions of the tested medicament for oral administration were prepared ex tempore. Levofloxacin (in oral administration) was used as a therapeutic preparation since this substance was the most experimentally studied antibiotic approved in clinical practice many years ago.
Staphylococcus aureus (mouse-adaptedstrain 10) was used as an infectious agent. Mice were infected intravenously.
(§1) Firstly, there was determined a lethal dose (LD100) of staphylococcus to be intravenously administered to this line of mice having a certain weight. Fatal cases among mice were registered every day for ten days. The lethal dose was 3×10^8 CFU/mouse. […] For this purpose, mice were housed into cages (10 animals per cage) and infected with a lethal dose of staphylococcus. One hour after each mouse was administered orally levofloxacin in doses of 1, 2, 4, 6, 8, 10, and 12 mg/kg. A group of mice infected with a lethal dose of staphylococcus without the treatment was considered as a control group. Fatal cases among mice were registered every day for ten days.
The next step of the experiment was to study an effect of combined administration of glutaryl histamine and levofloxacin on a model of staphylococcal sepsis in mice.
(§2) In the experiment, mice were housed in following groups (10 animals per cage):
(§3) Glutaryl histamine was administered orally in the corresponding doses to the mice of groups 3, 4, 5, 6, 7, and 8 for 5 days. Five day after, all groups of mice were intravenously administered with 0.2 ml of Staphylococcus aureus in the lethal dose. […] After infection and administration of levofloxacin, glutaryl histamine was administered to mice of groups 3-8 for additional 5 days. During the experiment, the animals were observed every day, and fatal cases were registered (see Table 13).

[4] = system: Staphylococcus aureus (mouse-adapted MRSA strain 5); experiment: animal or person; type: in vivo, mice
Description: Tested medicament was glutaryl histamine in doses of 15, 30 and 45 mg/kg. Solutions of the tested medicament for oral administration were prepared ex tempore in stream water. Ampicillin (in intravenous administration) was used as a therapeutic preparation since it is the most experimentally studied antibiotic approved in clinical practice many years ago. Levofloxacin was used as a positive control (in oral administration).
Staphylococcus aureus was used as an infectious agent (mouse-adapted MRSA strain 5, collection from GU NIINA im.G.F. Gauze RAMN).
Firstly, there was determined a lethal dose (LD100) of staphylococcus when intravenously administered to this line of mice with a certain weight. Fatal cases among mice were registered every day for ten days. […] After that, there was determined the dose of ampicillin providing a survival rate of 20% of mice infected with staphylococcus MRSA taken in a lethal dose. For this purpose, mice were housed into cages by 10 animals and infected with a lethal dose of staphylococcus. One hour later, each mouse was intravenously administered ampicillin in doses of 30, 60, 90, 120, 150, and 180 mg/kg. A group of mice infected with a lethal dose of staphylococcus without the treatment was considered as a control group. Fatal cases among mice were registered every day for ten days.
The next step of the experiment was to study an effect of combined administration of glutaryl histamine with ampicilline on a model of MRSA-induced staphylococcal sepsis in mice.
In the experiment, the mice were housed in following groups of 10 animals per cage: […]

[5] = system: Escherichia coli (mouse-adapted strain 4300); experiment: animal or person; type: in vivo, mice
Description: Escherichia coli (mouse-adaptedstrain 4300, Institute collection) was used as an infectious agent. Mice were infected intravenously.
as §1, with “there were” for “there was”, “of Escherichia coli” for “of staphylococcus”, “mice with” for “mice having”, “days.” for “days. The lethal dose was 3×10^8 CFU/mouse.”, “of Escherichia coli.” for “of staphylococcus.”
The next step of the experiment was to study an effect of combined administration of glutaryl histamine and levofloxacin on a model of E. coli sepsis in mice.
as §2
as §3, with “to” for “to the”, “administered” for “administered with”, “Escherichia coli” for “Staphylococcus aureus”, “14).” for “13).”

[6] = Diclofenac 11 mg/kg, n = 10, listed as diclofenac
[7] = levofloxacin 2.65 mg/kg, tenth day
[8] = group 3: levofloxacin 4 mg/ml per os one time
[9] = levofloxacin 20 mg/kg, tenth day

## O=C(O)Cc1ccccc1Nc1c(Cl)cccc1Cl [Diclofenac, diclofenac, reference compound]
[1]; Diclofenac 11 mg/kg, n = 10
  Mucopurulent catarrh (number of rats): 7
  Mucous catarrh (number of rats): 3
  Without changes (number of rats, mucous membrane in the nasal passages, macroscopic): 0
[1]; [6]
  Mucopurulent catarrh (number of rats): four
  Mucous catarrh (number of rats): three
[1]; Diclofenac (11 mg/kg), M ± m
  The number of caliciform cells within 1 mm of the mucosal membrane of the nasal septum: 31.8 ± 1.9* **
[2]
  Mortality rate (%): 29%
  The number of died animals/initial number of animals in a group: 4/14
[2]; M ± m
  Area of germinal centers of lymphoid follicles in affected lymph nodes: 0.074 ± 0.007* mm^2
  Weight difference between affected and intact lymph nodes: 16.3 ± 1.4 mg

## C[C@H]1COc2c(N3CCN(C)CC3)c(F)cc3c(=O)c(C(=O)O)cn1c23 [levofloxacin, reference compound]
[3]; Staphylococcus aureus, po, read-out: ED50 (50% effective dose)
  ED50: 2.65 mg/kg
[3]; day 1, levofloxacin 2.65 mg/kg
  died/survived animals: 0/10
[3]; day 2, levofloxacin 2.65 mg/kg
  died/survived animals: 0/10
[3]; day 3, levofloxacin 2.65 mg/kg
  died/survived animals: 1/9
[3]; day 4, levofloxacin 2.65 mg/kg
  died/survived animals: 2/8
[3]; day 5, levofloxacin 2.65 mg/kg
  died/survived animals: 4/6
[3]; day 6, levofloxacin 2.65 mg/kg
  died/survived animals: 4/6
[3]; day 7, levofloxacin 2.65 mg/kg
  died/survived animals: 4/6
[3]; day 8, levofloxacin 2.65 mg/kg
  died/survived animals: 5/5
[3]; day 9, levofloxacin 2.65 mg/kg
  died/survived animals: 5/5
[3]; day 10, levofloxacin 2.65 mg/kg
  died/survived animals: 5/5
[3]; [7]
  Mortality rate (%): 50%
  Survival rate (%): 50%
[4]; Staphylococcus aureus, MRSA, po
  ED50: 4 mg/kg
[4]; day 1, group 3: levofloxacin 4 mg/ml per os one time
  died/survived animals: 0/10
[4]; day 2, group 3: levofloxacin 4 mg/ml per os one time
  died/survived animals: 0/10
[4]; day 3, group 3: levofloxacin 4 mg/ml per os one time
  died/survived animals: 0/10
[4]; day 4, group 3: levofloxacin 4 mg/ml per os one time
  died/survived animals: 1/9
[4]; day 5, group 3: levofloxacin 4 mg/ml per os one time
  died/survived animals: 2/8
[4]; day 6, group 3: levofloxacin 4 mg/ml per os one time
  died/survived animals: 3/7
[4]; day 7, group 3: levofloxacin 4 mg/ml per os one time
  died/survived animals: 4/6
[4]; day 8, group 3: levofloxacin 4 mg/ml per os one time
  died/survived animals: 5/5
[4]; day 9, group 3: levofloxacin 4 mg/ml per os one time
  died/survived animals: 5/5
[4]; day 10, group 3: levofloxacin 4 mg/ml per os one time
  died/survived animals: 5/5
[4]; [8]
  Mortality rate (%): 50%
  Survival rate (%): 50%
[5]; Escherichia coli, po, read-out: ED50 (50% effective dose)
  ED50: 2.97 mg/kg
[5]; day 1, levofloxacin 20 mg/kg
  died/survived animals: 0/10
[5]; day 2, levofloxacin 20 mg/kg
  died/survived animals: 0/10
[5]; day 3, levofloxacin 20 mg/kg
  died/survived animals: 0/10
[5]; day 4, levofloxacin 20 mg/kg
  died/survived animals: 1/9
[5]; day 5, levofloxacin 20 mg/kg
  died/survived animals: 2/8
[5]; day 6, levofloxacin 20 mg/kg
  died/survived animals: 3/7
[5]; day 7, levofloxacin 20 mg/kg
  died/survived animals: 4/6
[5]; day 8, levofloxacin 20 mg/kg
  died/survived animals: 5/5
[5]; day 9, levofloxacin 20 mg/kg
  died/survived animals: 5/5
[5]; day 10, levofloxacin 20 mg/kg
  died/survived animals: 5/5
[5]; [9]
  Mortality rate (%): 50%
  Survival rate (%): 50%
